Assays:
Conditions in all cases: 1 mM ATP; inhibitor
[1] = target: CDK1/B1 (Homo sapiens, UniProt P06493)
Description: (§1) Kinase selectivity panel Kinome profiling was conducted by AssayQuant Technologies (Marlboro, MA) using Sox chromophore technology and Sox-based peptide substrates developed for human kinases in a 384-well format. Compounds were tested at 1 µM in the presence of 1 mM ATP.

[2] = target: CDC42BPB/MRCKB (Homo sapiens, UniProt Q9Y5S2)
Description: as §1

[3] = target: PLK2 (Homo sapiens, UniProt Q9NYY3)
Description: as §1

[4] = target: SYK (Homo sapiens, UniProt P43405)
Description: as §1

[5] = target: FLT4 (Homo sapiens, UniProt P35916)
Description: as §1

[6] = target: SRMS (Homo sapiens, UniProt Q9H3Y6)
Description: as §1

[7] = target: JAK1(JH1JH2) (Homo sapiens, UniProt P23458)
Description: as §1

[8] = target: RPS6KA3/RSK2 (Homo sapiens, UniProt P51812)
Description: as §1

[9] = target: GRK1 (Homo sapiens, UniProt Q15835)
Description: as §1

[10] = target: FGFR2 (Homo sapiens, UniProt P21802)
Description: as §1

[11] = target: BUB1 (Homo sapiens, UniProt O43683)
Description: as §1

[12] = target: CAMK1G (Homo sapiens, UniProt Q96NX5)
Description: as §1

[13] = target: AKT1 (Homo sapiens, UniProt P31749)
Description: as §1

[14] = target: MAPK14/P38A (Homo sapiens, UniProt Q16539)
Description: as §1

[15] = target: MYLK4 (Homo sapiens, UniProt Q86YV6)
Description: as §1

[16] = target: MAP3K7 (Homo sapiens, UniProt O43318)
Description: as §1

[17] = target: GRK6 (Homo sapiens, UniProt P43250)
Description: as §1

[18] = target: PAK4 (Homo sapiens, UniProt O96013)
Description: as §1

[19] = target: MAP4K3/GLK (Homo sapiens, UniProt Q8IVH8)
Description: as §1

[20] = target: BMP2K/BIKE (Homo sapiens, UniProt Q9NSY1)
Description: as §1

[21] = target: FES (Homo sapiens, UniProt P07332)
Description: as §1

[22] = target: PRKCE/PKCE (Homo sapiens, UniProt Q02156)
Description: as §1

[23] = target: FER (Homo sapiens, UniProt P16591)
Description: as §1

[24] = target: MELK (Homo sapiens, UniProt Q14680)
Description: as §1

[25] = target: CDK18 (Homo sapiens, UniProt Q07002)
Description: as §1

[26] = target: MAP4K1/HPK1 (Homo sapiens, UniProt Q92918)
Description: as §1

[27] = target: RPS6KA6/RSK4 (Homo sapiens, UniProt Q9UK32)
Description: as §1

[28] = target: MAPK15/ERK7 (Homo sapiens, UniProt Q8TD08)
Description: as §1

[29] = target: T1, TOPK (Homo sapiens, UniProt Q96KB5)
T1 construct: gene PBK
Description: as §1

[30] = target: MAP3K13 (Homo sapiens, UniProt O43283)
Description: as §1

[31] = target: PKN1 (Homo sapiens, UniProt Q16512)
Description: as §1

[32] = target: MAP3K6/ASK2 (Homo sapiens, UniProt O95382)
Description: as §1

[33] = target: CDK5/P35 (Homo sapiens, UniProt Q00535)
Description: as §1

[34] = target: CDK9/T1 (Homo sapiens, UniProt P50750)
Description: as §1

[35] = target: NUAK2 (Homo sapiens, UniProt Q9H093)
Description: as §1

[36] = target: EIF2AK3/PEK (Homo sapiens, UniProt Q9NZJ5)
Description: as §1

[37] = target: ULK2 (Homo sapiens, UniProt Q8IYT8)
Description: as §1

[38] = target: LIMK2 (Homo sapiens, UniProt P53671)
Description: as §1

[39] = target: CAMK2A (Homo sapiens, UniProt Q9UQM7)
Description: as §1

Sequence of MAP3K7 (O43318 whole entry): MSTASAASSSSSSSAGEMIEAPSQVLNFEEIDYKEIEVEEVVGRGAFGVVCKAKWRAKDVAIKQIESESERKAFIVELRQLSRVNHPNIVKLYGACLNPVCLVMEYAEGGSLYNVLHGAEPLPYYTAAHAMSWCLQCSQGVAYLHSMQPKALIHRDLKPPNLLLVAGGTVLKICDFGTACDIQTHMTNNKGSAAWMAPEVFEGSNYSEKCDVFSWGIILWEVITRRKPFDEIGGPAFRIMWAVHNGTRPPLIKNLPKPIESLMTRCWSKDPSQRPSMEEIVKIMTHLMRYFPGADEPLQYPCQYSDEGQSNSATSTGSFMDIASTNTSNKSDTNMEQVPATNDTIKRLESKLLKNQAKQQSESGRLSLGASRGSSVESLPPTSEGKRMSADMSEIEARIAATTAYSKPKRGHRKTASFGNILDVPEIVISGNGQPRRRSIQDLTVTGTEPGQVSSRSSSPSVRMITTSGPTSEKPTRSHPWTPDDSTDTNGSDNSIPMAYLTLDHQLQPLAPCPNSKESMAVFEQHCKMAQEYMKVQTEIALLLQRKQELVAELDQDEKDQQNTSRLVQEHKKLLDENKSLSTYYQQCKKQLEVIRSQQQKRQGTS
Sequence of MAP3K13 (O43283 whole entry): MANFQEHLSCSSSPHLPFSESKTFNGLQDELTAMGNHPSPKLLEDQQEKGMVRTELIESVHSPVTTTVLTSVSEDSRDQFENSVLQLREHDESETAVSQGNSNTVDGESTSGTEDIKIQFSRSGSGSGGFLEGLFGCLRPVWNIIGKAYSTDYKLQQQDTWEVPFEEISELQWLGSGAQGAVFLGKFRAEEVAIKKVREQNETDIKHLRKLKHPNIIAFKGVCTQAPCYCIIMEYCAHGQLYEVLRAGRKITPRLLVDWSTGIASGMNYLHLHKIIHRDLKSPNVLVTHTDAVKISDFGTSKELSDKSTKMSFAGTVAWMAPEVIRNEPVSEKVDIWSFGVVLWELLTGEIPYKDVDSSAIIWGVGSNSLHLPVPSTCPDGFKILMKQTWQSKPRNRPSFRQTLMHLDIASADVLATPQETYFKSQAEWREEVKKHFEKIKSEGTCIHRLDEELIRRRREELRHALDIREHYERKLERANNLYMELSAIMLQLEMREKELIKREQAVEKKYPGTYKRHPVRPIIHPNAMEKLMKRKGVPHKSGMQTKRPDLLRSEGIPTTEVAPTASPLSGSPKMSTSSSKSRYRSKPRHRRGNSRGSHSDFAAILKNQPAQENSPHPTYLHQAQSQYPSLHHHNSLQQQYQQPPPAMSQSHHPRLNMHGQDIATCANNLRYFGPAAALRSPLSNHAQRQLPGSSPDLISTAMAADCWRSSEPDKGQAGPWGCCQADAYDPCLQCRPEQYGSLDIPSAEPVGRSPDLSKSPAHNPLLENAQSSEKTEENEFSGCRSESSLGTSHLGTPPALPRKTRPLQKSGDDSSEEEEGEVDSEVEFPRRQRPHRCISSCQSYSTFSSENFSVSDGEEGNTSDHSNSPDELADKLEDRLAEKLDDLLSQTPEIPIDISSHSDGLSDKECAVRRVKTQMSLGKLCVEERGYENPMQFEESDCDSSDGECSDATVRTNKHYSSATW
Sequence of CDK5/P35 (Q00535 whole entry): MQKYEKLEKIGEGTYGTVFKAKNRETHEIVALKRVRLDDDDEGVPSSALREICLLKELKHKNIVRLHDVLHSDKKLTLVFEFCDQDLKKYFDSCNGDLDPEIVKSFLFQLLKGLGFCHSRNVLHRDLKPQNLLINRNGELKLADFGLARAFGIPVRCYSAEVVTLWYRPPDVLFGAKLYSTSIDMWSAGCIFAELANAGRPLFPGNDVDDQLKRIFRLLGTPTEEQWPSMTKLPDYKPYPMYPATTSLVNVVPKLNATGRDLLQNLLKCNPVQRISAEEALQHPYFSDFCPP
Sequence of CDK5/P35 (Q15078 whole entry partner): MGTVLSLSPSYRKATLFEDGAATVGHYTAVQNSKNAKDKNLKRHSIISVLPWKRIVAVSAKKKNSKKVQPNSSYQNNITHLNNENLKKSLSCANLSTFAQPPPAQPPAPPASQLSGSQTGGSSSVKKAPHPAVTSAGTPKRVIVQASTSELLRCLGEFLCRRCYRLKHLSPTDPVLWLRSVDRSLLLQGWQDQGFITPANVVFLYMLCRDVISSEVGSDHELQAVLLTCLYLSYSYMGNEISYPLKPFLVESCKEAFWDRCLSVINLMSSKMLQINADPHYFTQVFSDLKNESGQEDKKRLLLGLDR
Sequence of LIMK2 (P53671 whole entry): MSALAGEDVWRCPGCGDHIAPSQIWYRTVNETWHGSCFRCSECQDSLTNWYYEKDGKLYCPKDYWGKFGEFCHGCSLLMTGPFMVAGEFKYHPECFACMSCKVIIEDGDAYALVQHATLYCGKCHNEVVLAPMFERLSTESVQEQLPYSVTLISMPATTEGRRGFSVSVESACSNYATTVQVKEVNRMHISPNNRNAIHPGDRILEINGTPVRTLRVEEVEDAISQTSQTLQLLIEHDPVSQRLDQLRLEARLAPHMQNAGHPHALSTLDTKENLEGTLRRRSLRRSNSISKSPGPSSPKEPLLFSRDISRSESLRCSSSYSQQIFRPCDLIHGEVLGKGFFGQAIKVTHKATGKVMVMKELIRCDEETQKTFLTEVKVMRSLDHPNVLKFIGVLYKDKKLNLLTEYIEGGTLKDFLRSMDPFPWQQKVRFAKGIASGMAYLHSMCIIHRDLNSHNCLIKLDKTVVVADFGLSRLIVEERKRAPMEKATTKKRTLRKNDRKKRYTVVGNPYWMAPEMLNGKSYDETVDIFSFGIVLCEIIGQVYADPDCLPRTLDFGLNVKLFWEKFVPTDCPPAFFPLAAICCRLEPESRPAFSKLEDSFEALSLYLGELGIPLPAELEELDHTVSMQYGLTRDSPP
Sequence of GRK1 (Q15835 whole entry): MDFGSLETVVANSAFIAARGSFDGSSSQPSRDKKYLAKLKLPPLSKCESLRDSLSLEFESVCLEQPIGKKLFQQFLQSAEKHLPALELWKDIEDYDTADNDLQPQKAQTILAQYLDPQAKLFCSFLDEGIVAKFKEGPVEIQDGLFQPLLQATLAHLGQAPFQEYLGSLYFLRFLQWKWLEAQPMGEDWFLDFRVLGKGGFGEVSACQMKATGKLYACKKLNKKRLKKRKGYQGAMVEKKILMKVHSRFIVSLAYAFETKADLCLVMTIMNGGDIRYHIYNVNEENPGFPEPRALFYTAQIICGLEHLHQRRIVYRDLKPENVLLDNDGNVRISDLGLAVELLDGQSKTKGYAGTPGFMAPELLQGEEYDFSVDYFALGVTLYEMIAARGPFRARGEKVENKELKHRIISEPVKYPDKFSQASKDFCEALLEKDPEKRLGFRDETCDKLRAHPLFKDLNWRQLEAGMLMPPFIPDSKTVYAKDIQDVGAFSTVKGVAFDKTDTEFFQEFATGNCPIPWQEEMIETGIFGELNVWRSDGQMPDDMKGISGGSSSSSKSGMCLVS
Sequence of PRKCE/PKCE (Q02156 whole entry): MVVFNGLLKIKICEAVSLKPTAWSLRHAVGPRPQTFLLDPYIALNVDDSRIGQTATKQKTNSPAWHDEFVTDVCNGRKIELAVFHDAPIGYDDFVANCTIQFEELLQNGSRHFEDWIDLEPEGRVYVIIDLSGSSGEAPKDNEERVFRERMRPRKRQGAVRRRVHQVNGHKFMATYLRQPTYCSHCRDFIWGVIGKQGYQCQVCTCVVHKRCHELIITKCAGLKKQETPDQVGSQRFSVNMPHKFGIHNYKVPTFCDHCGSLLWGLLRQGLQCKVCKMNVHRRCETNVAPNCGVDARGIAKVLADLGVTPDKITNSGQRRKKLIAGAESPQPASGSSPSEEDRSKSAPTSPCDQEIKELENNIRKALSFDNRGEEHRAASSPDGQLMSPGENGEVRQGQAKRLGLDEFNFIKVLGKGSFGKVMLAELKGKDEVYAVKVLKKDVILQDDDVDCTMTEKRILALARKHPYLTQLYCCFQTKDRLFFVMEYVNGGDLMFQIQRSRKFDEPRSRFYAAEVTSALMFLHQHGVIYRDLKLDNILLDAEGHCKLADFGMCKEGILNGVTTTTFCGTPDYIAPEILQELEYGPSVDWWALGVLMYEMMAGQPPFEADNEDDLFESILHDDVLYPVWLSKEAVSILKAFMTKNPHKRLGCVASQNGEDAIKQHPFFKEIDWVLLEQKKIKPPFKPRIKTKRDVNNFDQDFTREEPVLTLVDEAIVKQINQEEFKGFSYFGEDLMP
Sequence of MAPK14/P38A (Q16539 whole entry): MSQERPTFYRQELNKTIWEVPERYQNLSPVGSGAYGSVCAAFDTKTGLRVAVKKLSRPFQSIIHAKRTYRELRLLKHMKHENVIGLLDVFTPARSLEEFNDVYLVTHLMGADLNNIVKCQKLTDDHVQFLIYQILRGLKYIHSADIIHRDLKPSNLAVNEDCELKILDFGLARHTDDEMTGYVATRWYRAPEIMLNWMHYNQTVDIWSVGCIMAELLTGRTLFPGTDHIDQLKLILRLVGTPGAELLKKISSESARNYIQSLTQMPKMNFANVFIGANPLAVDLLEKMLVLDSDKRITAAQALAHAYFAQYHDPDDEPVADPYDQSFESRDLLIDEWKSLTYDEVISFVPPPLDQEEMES
Sequence of CDK18 (Q07002 whole entry): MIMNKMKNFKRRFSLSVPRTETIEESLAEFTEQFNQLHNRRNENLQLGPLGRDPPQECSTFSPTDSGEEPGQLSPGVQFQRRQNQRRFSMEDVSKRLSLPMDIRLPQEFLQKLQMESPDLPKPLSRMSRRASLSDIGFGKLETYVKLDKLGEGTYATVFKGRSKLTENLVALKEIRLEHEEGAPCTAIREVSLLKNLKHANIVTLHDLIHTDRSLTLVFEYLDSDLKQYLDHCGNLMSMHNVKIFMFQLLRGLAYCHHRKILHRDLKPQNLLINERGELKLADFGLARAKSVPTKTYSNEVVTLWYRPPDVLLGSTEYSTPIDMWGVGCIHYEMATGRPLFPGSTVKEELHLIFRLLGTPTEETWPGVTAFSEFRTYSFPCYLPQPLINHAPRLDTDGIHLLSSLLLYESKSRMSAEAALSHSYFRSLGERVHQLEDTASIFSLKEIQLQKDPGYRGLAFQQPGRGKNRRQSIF

SMILES: C=CC(=O)N1CCC[C@@H](n2nc(-c3ccc(Oc4ccccc4)cc3)c3c(N)ncnc32)C1 [Ibrutinib]
- 1 µM GBD00276 (ibrutinib), % inhibition [1]: -7.635%
- 1 µM GBD00276 (ibrutinib), % inhibition [2]: -15.12%
- 1 µM GBD00276 (ibrutinib), % inhibition [3]: -1.576%
- 1 µM GBD00276 (ibrutinib), % inhibition [4]: 6.138%
- 1 µM GBD00276 (ibrutinib), % inhibition [5]: 38.81%
- 1 µM GBD00276 (ibrutinib), % inhibition [6]: 81.42%
- 1 µM GBD00276 (ibrutinib), % inhibition [7]: 20.73%
- 1 µM GBD00276 (ibrutinib), % inhibition [8]: 28.78%
- 1 µM GBD00276 (ibrutinib), % inhibition [9]: 10.14%
- 1 µM GBD00276 (ibrutinib), % inhibition [10]: 32.69%
- 1 µM GBD00276 (ibrutinib), % inhibition [11]: 26.62%
- 1 µM GBD00276 (ibrutinib), % inhibition [12]: 11.1875%
- 1 µM GBD00276 (ibrutinib), % inhibition [13]: 16.85%
- 1 µM GBD00276 (ibrutinib), % inhibition [14]: 4.135%
- 1 µM GBD00276 (ibrutinib), % inhibition [15]: 6.189%
- 1 µM GBD00276 (ibrutinib), % inhibition [16]: -2.955%
- 1 µM GBD00276 (ibrutinib), % inhibition [17]: -23.1%
- 1 µM GBD00276 (ibrutinib), % inhibition [18]: 3.525%
- 1 µM GBD00276 (ibrutinib), % inhibition [19]: 9.762%
- 1 µM GBD00276 (ibrutinib), % inhibition [20]: 12.88%
- 1 µM GBD00276 (ibrutinib), % inhibition [21]: 7.857%
- 1 µM GBD00276 (ibrutinib), % inhibition [22]: -10.08%
- 1 µM GBD00276 (ibrutinib), % inhibition [23]: 6.712%
- 1 µM GBD00276 (ibrutinib), % inhibition [24]: -0.3303%
- 1 µM GBD00276 (ibrutinib), % inhibition [25]: 6.584%
- 1 µM GBD00276 (ibrutinib), % inhibition [26]: 8.34%
- 1 µM GBD00276 (ibrutinib), % inhibition [27]: 23.9%
- 1 µM GBD00276 (ibrutinib), % inhibition [28]: -6.367%
- 1 µM GBD00276 (ibrutinib), % inhibition [29]: -5.913%
- 1 µM GBD00276 (ibrutinib), % inhibition [30]: -13.52%
- 1 µM GBD00276 (ibrutinib), % inhibition [31]: -1.102%
- 1 µM GBD00276 (ibrutinib), % inhibition [32]: 25.05%
- 1 µM GBD00276 (ibrutinib), % inhibition [33]: 2.273%
- 1 µM GBD00276 (ibrutinib), % inhibition [34]: -10.19%
- 1 µM GBD00276 (ibrutinib), % inhibition [35]: 3.408%
- 1 µM GBD00276 (ibrutinib), % inhibition [36]: -3.047%
- 1 µM GBD00276 (ibrutinib), % inhibition [37]: -2.604%
- 1 µM GBD00276 (ibrutinib), % inhibition [38]: 11.59%
- 1 µM GBD00276 (ibrutinib), % inhibition [39]: 2.188%
